The values that follow come from patent US6630177B1, “Products extracted from a plant of the genus Commiphora, particularly the Commiphora mukul plant, extracts containing same and applications thereof, for example in cosmetics” (Parfums Christian Dior, priority 1995, dated 2003).

Entries after “also recorded” stand apart in the source; their conditions may differ.

One assay relates to fibroblasts in culture. As to the kind of experiment: Lipogenic activity of the fractions on fibroblasts in culture. The class given is cell-based. The following applies: result in words. As to the method:
In a first step, the extract G is subjected to a series of fractionations by high performance liquid chromatography. Each fraction is tested for its lipogenic activity on fibroblasts in culture using the method explained below. These different fractionations ultimately yield an active fraction, FIIB, whose characteristic peaks are identified on the chromatogram.

For a further assay, the system named is 3T3 F442A. As to the kind of experiment: Determination of the glycero-3-phosphate dehydrogenase (G3PDH) activity in treated fibroblast (preadipocyte) cultures. The class given is cell-based, murine. Conditions: for Rate of conversion of NADH: 3T3 F442A cultures treated at 5 μg/ml on D+5, D+7, D+9, G3PDH assayed on D+12, mean of three experiments; for Activity A1 (stimulation of G3PDH activity versus control cultures): 3T3 F442A cultures, calculated from Vp and Vt. The text has this:
The cells used are 3T3 F442A, which constitute a line of murine preadipocytes selected for their ability to convert to adipocytes if the culture conditions allow, in accordance with the method of Green, H. & Kehinde, C., Cell 1 (1974) 113.
The aim was to measure the expression of two differentiation markers, namely glycero-3-phosphate dehydrogenase (G3PDH) on the one hand and cyclic AMP (cAMP) on the other.
It is pointed out here that the enzyme G3PDH allows the formation, in the fibroblast, of glycerol 3-phosphate, a molecule which is subsequently involved in the synthesis of the intracellular lipids (triglycerides). Thus an increase in the activity of the G3PDH is directly linked to an increase in this synthesis.
The fibroblasts are inoculated at the bottom of Petri dishes of diameter 35 mm in Dulbecco's Modified Eagle's Medium (DMEM), in the presence of 5% of calf serum (CS) and 5% of fetal calf serum (FCS). Each experiment is performed in triplicate.
During the treatment phase, the medium consists of DMEM+10% of fetal calf serum.
The product or extract according to the invention is dissolved in ethanol and used on the cultures at a final concentration of 5 μg/ml.
On day D+5: treatment with resin of Commiphora mukul (extract G), FIIB1 or IIa or IIb at 5 μg/ml in DMEM, 10% FCS
On days D+7 and D+9: treatment identical to that performed on D+5
On day D+12: grinding of the cells for assay of G3PDH.
The cellular monolayer is recovered by scraping and vigorously homogenized in TRIS-HCl buffer (25 mM, pH 7.4), 1 mM EDTA, at 4° C. The G3PDH activity is determined on the supernatant of the ground cellular material immediately after centrifugation.
It is possible to calculate an absorption difference (ΔAbs)/min, which corresponds to the initial rate of the enzymatic reaction.
The results are expressed in terms of specific activity, i.e. in nmol of NADH converted/min/mg of cellular proteins (the total cellular protein content is evaluated by the method of BCA—PIERCE: protein assay reagent).
The activity Al of the products according to the invention on stimulation of the activity of this enzyme is calculated according to the following formula: [formula]
Vp is the mean value, over the three experiments, of the rate of conversion of NADH, expressed in nmol/min/mg of cellular proteins, in the cultures treated with the products according to the invention,
Vt is the mean value of this rate in the control cultures.

In the case of `C/C(=C\CC/C(C)=C/CC/C(C)=C/CC[C@@H]1[C@@]2(C)CCC(=O)C(C)(C)[C@@H]2CC[C@@]1(C)O)CO` [IIa, (5R, 10S,8R,9R)-3-oxopolypoda-13E,17E,21E-triene-8,30-diol], the Lipogenic activity result in the assay on fibroblasts in culture is listed as “give the best results; also recorded: substantially equivalent”. Further, in the assay on 3T3 F442A, the “Rate of conversion of NADH” value is recorded as 222 ± 88 nmol/min/mg of proteins. Further, the “Activity A1 (stimulation of G3PDH activity versus control cultures)” value in the assay on 3T3 F442A (5 μg/ml) was 348%.
Turning to `C/C(=C\CC/C(C)=C/CC[C@@H]1[C@@]2(C)CCC(=O)C(C)(C)[C@@H]2CC[C@@]1(C)O)CC/C=C(\C)C(=O)O` [IIb, (5R,10S,8R,9R)-8-hydroxy-3-oxopolypoda-13E,17E,21 E-trien-30-oic acid], in the assay with fibroblasts in culture, the Lipogenic activity result is “give the best results; also recorded: substantially equivalent”. The “Rate of conversion of NADH” value in the assay on 3T3 F442A was 352 ± 62 nmol/min/mg of proteins. Further, in the assay with 3T3 F442A (5 μg/ml), the “Activity A1 (stimulation of G3PDH activity versus control cultures)” value was 610%. In addition, in the assay with 3T3 F442A (fibroblast cultures, 5 μg/ml), the “Increase of the activity of the enzyme G3PDH compared with control cultures” value was 7 fold.
